# Results published in patent US20260250318A1, “COMPOSITIONS AND METHODS FOR CROSSING THE BLOOD BRAIN BARRIER” (VOYAGER THERAPEUTICS, INC., priority 2022, published 2026).
# Tested on: brains, heart, liver, muscle, and DRG of the NHPs
# Assay: Maturation of TTM-001 and TTM-002 capsids, NGS enrichment in NHP tissues
# Assay type: in vivo
# Details: NGS fold-enrichment; DRG; NHP; relative to AAV9
# Source text: This Example describes maturation of the AAV9 capsid variants, TTM-001 (SEQ ID NO: 981 (amino acid) and 983 (DNA), comprising SEQ ID NO: 941 (encoded by SEQ ID NO: 942)) and TTM-002 (SEQ ID NO: 982 (amino acid) and 984 (DNA), comprising SEQ ID NO: […] (encoded by SEQ ID NO: 944)) in NHPs to further enhance their transduction and biodistribution in the central nervous system as well as other tissues, and evolve the AAV capsid variants to provide further cross-species compatibility. Two approaches were used to mature the TTM-001 and TTM-002 capsid sequences in order to randomize and mutate within and around the peptide insert comprised within loop IV of the capsid variant. […] In the first maturation approach, sets of three contiguous amino acids were randomized across the mutagenesis region in the TTM-001 and TTM-002 sequences, which spanned from position 450 to position 466, numbered according to SEQ ID NO: 981 and 982. In the second maturation approach, mutagenic primers were used to introduce point mutations at a low frequency, scattered across the mutagenesis region in the TTM-001 and TTM-002 sequences ranging from position 449 to position 466, numbered according to SEQ ID NO: 981 and 982. AAV capsid variants arising from each maturation approach for TTM-001 and TTM-002 were pooled together, for subsequent testing and characterization in NHPs.
# The library of pooled matured AAV capsid variants generated using the first maturation approach and the second maturation approach for the TTM-001 and TTM-002 AAV capsid variants were injected into two NHPs. […] Following RNA recovery and RT-PCR amplification, a systematic NGS enrichment analysis was performed to calculate the fold enrichment ratio relative to an AAV9 control, and the peptides comprised within the variants were identified.
# Following the RNA recovery and NGS analysis from the second maturation approach, approximately 680,000 capsid variants were identified. The 680,000 matured capsid variants were then filtered based on samples with a raw virus count greater than 10 and a coefficient of variance (CV) of less than 1, which was calculated for each peptide across the brain samples taken from the two NHPs. […] Using this filtering criteria, this led to approximately 64,000 matured capsid variants.
row,Sequence,"Fold Enrichment relative to AAV9, DRG (NHP)"
1,KTINRYSSPHSKAQNQQT,0.000 fold

# Same assay, conditions: NGS fold-enrichment; brain; NHP; relative to AAV9
row,Sequence,"Fold Enrichment relative to AAV9, Brain (NHP)"
1,KTINRYSSPHSKAQNQQT,0.000 fold

# Same assay, conditions: NGS fold-enrichment; heart; NHP; relative to AAV9
row,Sequence,"Fold Enrichment relative to AAV9, Heart (NHP)"
1,KTINRYSSPHSKAQNQQT,0.000 fold

# Same assay, conditions: NGS fold-enrichment; liver DNA; NHP; relative to AAV9
row,Sequence,"Fold Enrichment relative to AAV9, Liver DNA (NHP)"
1,KTINRYSSPHSKAQNQQT,1.544 fold

# Same assay, conditions: NGS fold-enrichment; liver RNA; NHP; relative to AAV9
row,Sequence,"Fold Enrichment relative to AAV9, Liver RNA (NHP)"
1,KTINRYSSPHSKAQNQQT,10.926 fold

# Same assay, conditions: NGS fold-enrichment; muscle; NHP; relative to AAV9
row,Sequence,"Fold Enrichment relative to AAV9, Muscle (NHP)"
1,KTINRYSSPHSKAQNQQT,0.000 fold

# Same assay, conditions: NHP DRG; NGS; relative to AAV9 control
row,Sequence,"Fold Enrichment relative to AAV9, DRG (NHP)"
1,KTINGSGSPHVYHQNQQT,0.000 fold
2,KTINGSGSPHSKAQTHRT,0.000 fold
3,KTINGSVSPHCTAQNQQT (peptide inserted in AAV capsid),0.000 fold
4,KTINGSGSPHSKAQARKT,0.000 fold
5,KTINGSGSPHSKACISQT,0.000 fold
6,KTINGSGSPHSPPDNQQT,0.000 fold
7,KTINGSGSPHSKFKNQQT,0.000 fold
8,KTINGSGSPHSTCLNQQT,0.000 fold
9,KTINGSGSPHSKAQSRKT,0.000 fold
10,KTINGSGSPHSRCRNQQT,0.000 fold
11,KTINGSGSPHSKAQYSRT,0.000 fold
12,KTINGSGSPHSKWKSQQT,0.000 fold
13,KTINGSGSPHLRWQNQQT,0.000 fold
14,KTINGSGSPHSYTRNQQT,0.000 fold
15,KTINGSGSPHSKIRRQQT,0.000 fold
16,KTINGSGSPHSKALRCQT,0.000 fold
17,KRYNGSGSPHSKAQNQQT,0.000 fold
18,KTINGSGSPHSYAFNQQT,0.000 fold
19,KTINKCLSPHSKAQNQQT,0.000 fold

# Same assay, conditions: NHP brain; NGS; relative to AAV9 control
row,Sequence,"Fold Enrichment relative to AAV9, Brain (NHP)"
1,KTINGSGSPHVYHQNQQT,0.000 fold
2,KTINGSGSPHSKAQTHRT,0.000 fold
3,KTINGSVSPHCTAQNQQT (peptide inserted in AAV capsid),0.000 fold
4,KTINGSGSPHSKAQARKT,0.000 fold
5,KTINGSGSPHSKACISQT,0.000 fold
6,KTINGSGSPHSPPDNQQT,0.000 fold
7,KTINGSGSPHSKFKNQQT,0.000 fold
8,KTINGSGSPHSTCLNQQT,0.000 fold
9,KTINGSGSPHSKAQSRKT,0.000 fold
10,KTINGSGSPHSRCRNQQT,0.000 fold
11,KTINGSGSPHSKAQYSRT,0.000 fold
12,KTINGSGSPHSKWKSQQT,0.000 fold
13,KTINGSGSPHLRWQNQQT,0.000 fold
14,KTINGSGSPHSYTRNQQT,0.000 fold
15,KTINGSGSPHSKIRRQQT,0.000 fold
16,KTINGSGSPHSKALRCQT,0.000 fold
17,KRYNGSGSPHSKAQNQQT,0.000 fold
18,KTINGSGSPHSYAFNQQT,0.000 fold
19,KTINKCLSPHSKAQNQQT,0.000 fold

# Same assay, conditions: NHP heart; NGS; relative to AAV9 control
row,Sequence,"Fold Enrichment relative to AAV9, Heart (NHP)"
1,KTINGSGSPHVYHQNQQT,0.000 fold
2,KTINGSGSPHSKAQTHRT,0.000 fold
3,KTINGSVSPHCTAQNQQT (peptide inserted in AAV capsid),0.000 fold
4,KTINGSGSPHSKAQARKT,0.000 fold
5,KTINGSGSPHSKACISQT,0.000 fold
6,KTINGSGSPHSPPDNQQT,0.000 fold
7,KTINGSGSPHSKFKNQQT,0.000 fold
8,KTINGSGSPHSTCLNQQT,0.000 fold
9,KTINGSGSPHSKAQSRKT,0.000 fold
10,KTINGSGSPHSRCRNQQT,0.000 fold
11,KTINGSGSPHSKAQYSRT,0.000 fold
12,KTINGSGSPHSKWKSQQT,4.904 fold
13,KTINGSGSPHLRWQNQQT,0.000 fold
14,KTINGSGSPHSYTRNQQT,0.000 fold
15,KTINGSGSPHSKIRRQQT,0.000 fold
16,KTINGSGSPHSKALRCQT,0.000 fold
17,KRYNGSGSPHSKAQNQQT,0.000 fold
18,KTINGSGSPHSYAFNQQT,0.000 fold
19,KTINKCLSPHSKAQNQQT,0.000 fold

# Same assay, conditions: NHP liver DNA; NGS; relative to AAV9 control
row,Sequence,"Fold Enrichment relative to AAV9, Liver DNA (NHP)"
1,KTINGSGSPHVYHQNQQT,1.733 fold
2,KTINGSGSPHSKAQTHRT,2.917 fold
3,KTINGSVSPHCTAQNQQT (peptide inserted in AAV capsid),2.955 fold
4,KTINGSGSPHSKAQARKT,3.644 fold
5,KTINGSGSPHSKACISQT,0.240 fold
6,KTINGSGSPHSPPDNQQT,0.033 fold
7,KTINGSGSPHSKFKNQQT,1.074 fold
8,KTINGSGSPHSTCLNQQT,4.762 fold
9,KTINGSGSPHSKAQSRKT,2.715 fold
10,KTINGSGSPHSRCRNQQT,5.150 fold
11,KTINGSGSPHSKAQYSRT,0.956 fold
12,KTINGSGSPHSKWKSQQT,1.239 fold
13,KTINGSGSPHLRWQNQQT,9.649 fold
14,KTINGSGSPHSYTRNQQT,1.986 fold
15,KTINGSGSPHSKIRRQQT,1.388 fold
16,KTINGSGSPHSKALRCQT,1.892 fold
17,KRYNGSGSPHSKAQNQQT,0.806 fold
18,KTINGSGSPHSYAFNQQT,1.742 fold
19,KTINKCLSPHSKAQNQQT,5.097 fold

# Same assay, conditions: NHP liver RNA; NGS; TTM-001 and TTM-002 matured AAV capsid variants; relative to AAV9 control
row,Sequence,"Fold Enrichment relative to AAV9, Liver RNA (NHP)"
1,KTINGSGSPHVYHQNQQT,14.770 fold
2,KTINGSGSPHSKAQTHRT,17.290 fold
3,KTINGSVSPHCTAQNQQT (peptide inserted in AAV capsid),13.502 fold
4,KTINGSGSPHSKAQARKT,96.557 fold
5,KTINGSGSPHSKACISQT,17.371 fold
6,KTINGSGSPHSPPDNQQT,12.973 fold
7,KTINGSGSPHSKFKNQQT,21.951 fold
8,KTINGSGSPHSTCLNQQT,11.132 fold
9,KTINGSGSPHSKAQSRKT,14.589 fold
10,KTINGSGSPHSRCRNQQT,64.416 fold
11,KTINGSGSPHSKAQYSRT,60.119 fold
12,KTINGSGSPHSKWKSQQT,20.390 fold
13,KTINGSGSPHLRWQNQQT,21.014 fold
14,KTINGSGSPHSYTRNQQT,14.535 fold
15,KTINGSGSPHSKIRRQQT,53.528 fold
16,KTINGSGSPHSKALRCQT,17.283 fold
17,KRYNGSGSPHSKAQNQQT,15.160 fold
18,KTINGSGSPHSYAFNQQT,43.037 fold
19,KTINKCLSPHSKAQNQQT,30.667 fold

# Same assay, conditions: NHP muscle; NGS; relative to AAV9 control
row,Sequence,"Fold Enrichment relative to AAV9, Muscle (NHP)"
1,KTINGSGSPHVYHQNQQT,0.000 fold
2,KTINGSGSPHSKAQTHRT,0.000 fold
3,KTINGSVSPHCTAQNQQT (peptide inserted in AAV capsid),0.000 fold
4,KTINGSGSPHSKAQARKT,0.000 fold
5,KTINGSGSPHSKACISQT,0.000 fold
6,KTINGSGSPHSPPDNQQT,0.000 fold
7,KTINGSGSPHSKFKNQQT,0.000 fold
8,KTINGSGSPHSTCLNQQT,0.000 fold
9,KTINGSGSPHSKAQSRKT,0.000 fold
10,KTINGSGSPHSRCRNQQT,0.000 fold
11,KTINGSGSPHSKAQYSRT,0.000 fold
12,KTINGSGSPHSKWKSQQT,0.163 fold
13,KTINGSGSPHLRWQNQQT,0.000 fold
14,KTINGSGSPHSYTRNQQT,0.000 fold
15,KTINGSGSPHSKIRRQQT,0.000 fold
16,KTINGSGSPHSKALRCQT,0.000 fold
17,KRYNGSGSPHSKAQNQQT,0.000 fold
18,KTINGSGSPHSYAFNQQT,0.000 fold
19,KTINKCLSPHSKAQNQQT,0.000 fold
